Values joined by “and” are separate entries in the source; they are usually repeats but may differ in a detail not shown here. Identical values can stand only once. Like-named read-outs stand apart in the source and are kept apart here.
Assays:
[1] = test system: Salmonella typhimurium ATCC 14028 attached to human buccal epithelial cells; format: cell-based; conditions: Table A-1
Experimental: Studies were conducted on the attachment of Salmonella typhimurium to human buccal epithelial cells using the modified procedure of Boussard et al., International J. Pharmaceutics 53: 253-256 (1989). In this study, the activities of cationic and anionic surfactant compounds as well as certain chelating agents were compared on the detachment of S. typhimurium from epithelial cells.
To this end, bacteria were grown on nutrient agar for 16 hours at 37° C. The cells were suspended in 0.008 M phosphate buffered saline (PBS) at pH 7.2 and washed two times at 4500 rpm for 10 minutes. The last suspension was diluted in PBS to obtain a cell concentration of 0.5 to 1×10^9 cells/ml. Human epithelial cells were obtained by swabbing the buccal surface of a healthy, nonsmoking donor. […] The number of living cells was estimated and the suspension diluted to 0.5 to 1×10^5 cells/ml.
Next, the suspension of the human buccal cells was mixed with an equal volume of the bacterial suspension (3.0 ml), or PBS (0.8 ml). Contact was allowed for 1.5 hours at 35° C. under agitation. The mixtures were then centrifuged for 10 minutes at 4500 rpm. Each suspension, 1.0 ml, was transferred into Eppendorf vials and washed with PBS at 1500 rpm for 10 minutes. After the washing, the cells were treated with 1.0 ml PBS or 1.0 ml of the test chemical solution. Treatment was performed by suspending and vortexing on a low speed for 30 seconds followed by centrifugation at 1500 rpm for 10 minutes.
After the treatment, the cells were washed once with PBS and then 20 μl of erythrosin B was added to each vial. The suspension was centrifuged at 1500 rpm for 10 minutes, and the cells were washed twice under the same conditions. The final pellet was suspended in 300 μl of PBS. This suspension was spread out onto microscope slides and dried overnight at room temperature. After counter staining with methylene blue, the slides were microscopically examined under oil immersion.

[2] = test system: Salmonella typhimurium ATCC 14028 attached to human buccal epithelial cells; experiment: microbe, parasite or virus in culture; format: cell-based; conditions: for adherence, mean value of attached bacteria: Table A-3; for EC50: read-out: EC50 (±SD), detachment
Experimental: Additional studies on the detachment of Salmonella typhimurium from human buccal epithelial cells were conducted.
S. typhimurium ATCC 14028 was grown in nutrient broth (BBL Microbiology system, Cockeysville, Md.) for 16 hours at 37° C. The cells were centrifuged and washed twice with 0.008 M phosphate buffered saline (PBS, at pH 7.2) at 4500 rpm for 10 minutes. The last suspension was diluted in PBS to obtain a cell concentration 0.5 to 1×10^9 cells/ml using spectrophotometric measurement. Human epithelial cells were obtained by swabbing the buccal surface of a healthy, nonsmoking donor. […] The number of living cells was estimated and the suspension was diluted to 0.5 to 1×10^5 cells/ml.
The suspension of the human buccal cells was mixed with an equal volume of the bacterial suspension (3.0 ml), or PBS (0.8 ml) in 10 ml Erlenmeyer flasks. Contact was allowed for 1.5 hours at 35° C. under agitation. After incubation, 1.0 ml of each suspension was transferred into an Eppendorff vial, centrifuged at 3000 rpm for 10 minutes, and washed with PBS. The cells were treated with 1.0 ml PBS or 1.0 ml of the test chemical solution. Treatment was performed by suspending, gently vortexing, and centrifuging at 1500 rpm for 10 minutes. After the treatment, the cells were washed and placed on microscopic slides for examination.
EC50 represents the inverse measurement of the potency of a compound. EC50 values were determined by a nonlinear regression of the detachment effect versus the cationic surfactant concentration data from Table A-3.

[3] = test system: Salmonella typhimurium ATCC 14028; experiment: Minimum growth inhibitory concentration, macrodilution; format: cell-based; conditions: Mueler Hinton broth, macrodilution (NCCLS)
Experimental: Minimum growth inhibitory concentrations (MICs) of quaternary ammonium compounds and Na2 -EDTA for Salmonella were determined using Mueler Hinton broth (BBL Microbiology system, Cockeysville, Md.) and by the macrodilution method established by the National Committee for Clinical Laboratory Standards (NCCLS). Escherichia coli ATCC 25922 and Staphylococcus aureus ATCC 29213 were included in each assay as reference strains.

[4] = test system: Salmonella typhimurium ATCC 14028; experiment: Effect on viability of Salmonella in suspension (Tables D-1 to D-3); format: cell-based; conditions: for bacterial viability: Table D-1; for EC50: Salmonella enterica, read-out: EC50 (±SD), effect on viability in suspension
Experimental: EC50 values for four of the compounds were calculated from the bactericidal activity of the compounds as a function of molar concentration by a nonlinear regression algorithm.
In addition to the quaternary ammonium compounds, the antimicrobial activities of chelating agents Na2 -EDTA and EGTA were investigated. Na2 -EDTA was purchased from the Sigma Chemical Company (St. Louis, Mo.). Na2 -EDTA was dissolved in 0.04 M PPB prior to the assay and further dilutions were made in the same buffer.
EGTA was purchased from the Aldrich Chemical Company (Milwaukee, Wis.). EGTA was dissolved in 0.04 M PPB according to the procedure described by Harafuji and Ogawa (J. Biochem. 87:1305-1312 (1980)). After heating EGTA for 15 minutes at 80° C., the pH was adjusted to 7.0 by addition of NaOH. EGTA was filter-sterilized using a 0.2 μm Acro disc filter (Gelman Sciences; Ann Arbor, Mich.) prior to the assay. Further dilutions were made in sterile PPB.

[5] = test system: Salmonella typhimurium on chicken skin; experiment: Effect of surfactants on Salmonella attached to chicken skin, drumsticks (Tables F1-F4); conditions: 25° C.
Experimental: The following experiments utilizing chicken legs were conducted to determine the killing potential of a variety of surfactants against Salmonella on the skin and free in solutions. To this end, chicken legs obtained from the Department of Agriculture at the University of Arkansas, Fayetteville, were incubated for thirty minutes at room temperature with a 1:5000 dilution of Salmonella typhimurium. The chicken legs were removed five at a time and then rinsed twice in tap water to remove the unattached and excess Salmonella. The rinse water was sampled, diluted, and then plated onto XLD pour plates. […] The chicken legs were then removed and rinsed twice in tap water to remove the released Salmonella and excess chemicals. Rinses were then sampled, diluted, and then plated onto XLD pour plates.
The chicken legs were then individually washed with 100 ml sterile double distilled water, and then shaken fifty times. Samples of the wash H2 O were diluted and plated onto XLD pour plates. The chicken legs were further swabbed after the washing step above. The swabs were then plated onto the XLD plates. A set of wash samples were enriched with TT Broth Base Hajna and then plated onto XLD plates.
All of the samples were plated in 1 ml aliquots onto XLD pour plates. A positive control sample incubated in sterile double distilled water at 4° C. was run for each of the aforementioned conditions. Treatments occurred at both 4° C. and 25° C. The data is reported as the mean number of CFU/ml. The ratio in the table represents the number of chicken legs out of a sample of ten chicken legs producing the notated number of colonies, as indicated by the +, ++, +++, or ++++.

[6] = Salmonella enterica, Epithelial cell

SMILES | adherence, mean value of attached bacteria ([1]; 10 ug/ml) | adherence, mean value of attached bacteria ([1]; 25 ug/ml) | adherence, mean value of attached bacteria ([2]; 50 ug/ml) | adherence, mean value of attached bacteria ([2]; 75 ug/ml) | adherence, mean value of attached bacteria ([2]; 100 ug/ml) | EC50 [2, 6] [µM] | MIC [3] [µg/mL] | MIC ([3]; Salmonella enterica) [µg/mL] | bacterial viability ([4]; 10 ug/ml) | bacterial viability ([4]; 100 ug/ml) | EC50 [4] [µM] | Enrichment, chicken legs out of ten ([5]; 0.1%) | Rinse H2O ([5]; 0.1%) | Surfactant Solution ([5]; 0.1%) [CFU/ml] | Swabs, chicken legs producing the notated number of colonies ([5]; 0.1%) | Swabs, colonies ([5]; 0.1%) | Wash H2O, colonies ([5]; 0.1%) | Enrichment, chicken legs out of ten ([5]; 1.0%) | Rinse H2O ([5]; 1.0%) [CFU/ml] | Surfactant Solution ([5]; 1.0%) [CFU/ml] | other results
CCCCCCCCCCCC[N+](C)(C)C.[Br-] [DTMAB, dodecyltrimethylammonium bromide] | 76 ± 43 | 41 ± 19 | 113 ± 85 | 102 ± 59 | 92 ± 58 and 74 ± 56 | 868 ± 112 | 150 | 156 | 1.44 ± 0.07 × 10^9 CFU/ml | 1.3 ± 0.03 × 10^9 CFU/ml | 730 ± 64 | 8/10 | + (1-10) | 0 | 6/10 | + (1-10) | ++ (11-100) | 0/10 | 0 | 0 | adherence, mean value of attached bacteria ([1]; 75 ug/ml): 30 ± 18; adherence, mean value of attached bacteria ([1]; 100 ug/ml): 23 ± 18; adherence, mean value of attached bacteria ([2]; 150 ug/ml): 80 ± 59; adherence, mean value of attached bacteria ([2]; 200 ug/ml): 60 ± 43; adherence, mean value of attached bacteria ([2]; 250 ug/ml): 63 ± 35; adherence, mean value of attached bacteria ([2]; 300 ug/ml): 54 ± 35; adherence, mean value of attached bacteria ([2]; 325 ug/ml): 68 ± 39; bacterial viability ([4]; 200 ug/ml): 8.75 ± 1.28 × 10^8 CFU/ml; bacterial viability ([4]; 350 ug/ml): 800 ± 1300 CFU/ml; bacterial viability ([4]; 1000 ug/ml): 100 ± 100 CFU/ml; Wash H2O, chicken legs producing the notated number of colonies ([5]; 0.1%): 10/10; Swabs, chicken legs producing the notated number of colonies ([5]; 1.0%): 0/10; Wash H2O, colonies ([5]; 1.0%): 0 CFU/ml; Enrichment, chicken legs out of ten ([5]; .01%): 10/10; Rinse H2O ([5]; .01%): + (1-10); Surfactant Solution ([5]; .01%): + (1-10); Swabs, chicken legs producing the notated number of colonies ([5]; .01%): 10/10; Swabs, colonies ([5]; .01%): + (1-10); Wash H2O, chicken legs producing the notated number of colonies ([5]; .01%): 10/10; Wash H2O, colonies ([5]; .01%): ++ (11-100)
CCCCCCCCCCCCCC[N+](C)(C)C.[Br-] [TTMAB, tetradecyltrimethylammonium bromide] | 39 ± 26 | 24 ± 13 | 53 ± 34 | 72 ± 53 | 42 ± 22 and 26 ± 14 | 129 ± 3.9 | 60 | 64 | 1.33 ± 0.09 × 10^9 CFU/ml | 0 CFU/ml | 105 ± 0.8 | 0/10 | ++ (11-100) | 0 | 5/10 | + (1-10) | 0 CFU/ml | 0/10 | 0 | 0 | adherence, mean value of attached bacteria ([1]; 5 ug/ml): 37 ± 20; adherence, mean value of attached bacteria ([1]; 50 ug/ml): 28 ± 14; adherence, mean value of attached bacteria ([2]; 25 ug/ml): 91 ± 66; adherence, mean value of attached bacteria ([2]; 175 ug/ml): 28 ± 10; minimal effective concentration ([2]; Salmonella enterica, Epithelial cell, read-out: active concentration, detachment): 25 µg/mL; bacterial viability ([4]; 20 ug/ml): 1.06 ± 0.08 × 10^9 CFU/ml; bacterial viability ([4]; 60 ug/ml): 1.52 ± 2.07 × 10^3 CFU/ml; bacterial viability ([4]; 80 ug/ml): 100 ± 173 CFU/ml; Swabs, chicken legs producing the notated number of colonies ([5]; 1.0%): 0/10; Wash H2O, colonies ([5]; 1.0%): 0 CFU/ml; Enrichment, chicken legs out of ten ([5]; .01%): 8/10; Rinse H2O ([5]; .01%): + (1-10); Surfactant Solution ([5]; .01%): 0 CFU/ml; Swabs, chicken legs producing the notated number of colonies ([5]; .01%): 10/10; Swabs, colonies ([5]; .01%): + (1-10); Wash H2O, chicken legs producing the notated number of colonies ([5]; .01%): 10/10; Wash H2O, colonies ([5]; .01%): ++ (11-100)

Reference: patent US5366983A, “Use of quaternary ammonium compounds to remove salmonella contamination from meat products” (The Board of Trustees of The University of Arkansas, priority 1992, dated 1994)
